From patent US9522125B1, “Method of treating cancer” (Macau University of Science and Technology, priority 2015, dated 2016)

Legend:
[1] = test system: ROS1 phosphorylation; test: Western blot analysis of ROS1 phosphorylation and downstream signaling in HCC78 cells; assay type: cell-based; conditions: 48 h, 5 nM, 10 nM and 20 nM
Procedure: 1.5 Western Blot Analysis
After cells were plated on 6-well plates overnight, a wide concentrations of mitoxantrone were administered for 48 h. Cells were washed twice with cold PBS and then lysed in RIPA lysis buffer containing protease and phosphatase inhibitors, and protein concentration of the cell lysates were measured using the Bio-Rad protein Assay kit (Bio-Rad, Philadelphia, Pa., USA). After equalizing the protein concentrations of the samples, 5× laemmli buffer was added and boiled at 100° C. for 5 min. Equal amounts of protein samples (30 μg) were subjected to SDS-PAGE and separated with a 10% gel; then the separated proteins were transferred to a Nitrocellulose (NC) membrane, which was then exposed to 5% non-fat dried milk in TBS containing 0.1% Tween 20 (0.1% TBST) for 1 h at room temperature, followed by overnight incubation at 4° C. with primary anti-bodies (1:1000 dilutions). After being washed 3 times by TBST, the membranes were incubated with secondary fluorescent antibodies (1:10000 dilutions) to rabbit or mouse, the signal intensity of the membranes was detected by an LI-COR Odessy scanner (Belfast, Me., USA). Antibodies against GAPDH, p-AKT, p-ROS1, ROS1, p-ERK, ERK, p-STAT3, STAT3 were purchased from Cell signaling Technology. Anti-AKT antibody was acquired from Santa Cruz Biotechnology.

[2] = test system: HCC78 cells; test: MTT cytotoxicity assay on HCC78 cells; assay type: cell-based; conditions: Homo sapiens, 72 h treatment
Procedure: HCC78 cell line was purchased from the American Type Culture Collection (ATCC) (Manassas, Va., USA). Cells were cultured in RPMI-1640 medium containing 10% fetal bovine serum (FBS), 100 units/mL penicillin, and 100 μg/mL streptomycin under a humidified atmosphere of 5% CO2 at 37° C. Mitoxantrone was dissolved in DMSO.
(§1) 1.3 MTT Cytotoxicity Assay
(§2) 3000 cells were seeded on 96-well plates, then the plates were cultured overnight for cell adhesion, and treated with DMSO or various concentrations of mitoxantrone for 72 h. 10 μL of MTT (5 mg/mL; Sigma) was added in each well, and incubation was continued for another 4 hours, then the dark blue crystals were dissolved in 100 μL resolved solution (10% SDS and 0.1 mM HCL). Finally, the absorbance was measured at 570 nm by a microplate reader (Tecan, Morrisville, N.C., USA). The cell viability was calculated relative to untreated controls, and results were presented based on at least 3 independent experiments.

[3] = test system: HCC78 cells; test: Apoptosis analysis (morphology; Annexin-V FITC/PI flow cytometry) in HCC78 cells; assay type: cell-based
Procedure: HCC78 cells were seeded on a 6-well plate, and were allowed to attach overnight. The cells were treated with a dilution series of mitoxantrone for 48 h, collected by trypsin and washed twice with ice-cold PBS, and then resuspended in 100 μl 1× binding buffer. 2 μL Annexin-V FITC and 4 μL PI (100 μg/ml) were added to the solution and mixed well. After incubation for 15 min in the dark at room temperature, 400 μL of 1× binding buffer was added to each tube, where apoptosis level was then quantitatively analyzed using a FACSAria III Flow Cytometer (BD Biosciences, San Jose, Calif., USA).

[4] = test system: CCD19-Lu cells; test: MTT cytotoxicity assay on normal lung cells CCD19-Lu; assay type: cell-based; conditions: 72 h treatment
Procedure: as §1, §2

[5] = molecular target: ROS1 kinase (Homo sapiens, UniProt P08922); test: In vitro ROS1 enzymatic assay (LanthaScreen Eu kinase binding assay); conditions: room temperature, 1 hour
Procedure: 1.2 In Vitro ROS1 Enzymatic Assay
LanthaScreen® Eu kinase binding assay was used to determine the changes in kinase activity, which is an assay based on the binding and displacement property of the kinase with substrate. Briefly, the assay was performed at room temperature for 1 hour in a total volume of 15 μL, including 5 μL of test compound, 5 μL of kinase/antibody mixture and 5 μL of tracer. The signal of the 384-well plate was then measured at the end of the reactions.

Sequence of ROS1 kinase (P08922 28-2347): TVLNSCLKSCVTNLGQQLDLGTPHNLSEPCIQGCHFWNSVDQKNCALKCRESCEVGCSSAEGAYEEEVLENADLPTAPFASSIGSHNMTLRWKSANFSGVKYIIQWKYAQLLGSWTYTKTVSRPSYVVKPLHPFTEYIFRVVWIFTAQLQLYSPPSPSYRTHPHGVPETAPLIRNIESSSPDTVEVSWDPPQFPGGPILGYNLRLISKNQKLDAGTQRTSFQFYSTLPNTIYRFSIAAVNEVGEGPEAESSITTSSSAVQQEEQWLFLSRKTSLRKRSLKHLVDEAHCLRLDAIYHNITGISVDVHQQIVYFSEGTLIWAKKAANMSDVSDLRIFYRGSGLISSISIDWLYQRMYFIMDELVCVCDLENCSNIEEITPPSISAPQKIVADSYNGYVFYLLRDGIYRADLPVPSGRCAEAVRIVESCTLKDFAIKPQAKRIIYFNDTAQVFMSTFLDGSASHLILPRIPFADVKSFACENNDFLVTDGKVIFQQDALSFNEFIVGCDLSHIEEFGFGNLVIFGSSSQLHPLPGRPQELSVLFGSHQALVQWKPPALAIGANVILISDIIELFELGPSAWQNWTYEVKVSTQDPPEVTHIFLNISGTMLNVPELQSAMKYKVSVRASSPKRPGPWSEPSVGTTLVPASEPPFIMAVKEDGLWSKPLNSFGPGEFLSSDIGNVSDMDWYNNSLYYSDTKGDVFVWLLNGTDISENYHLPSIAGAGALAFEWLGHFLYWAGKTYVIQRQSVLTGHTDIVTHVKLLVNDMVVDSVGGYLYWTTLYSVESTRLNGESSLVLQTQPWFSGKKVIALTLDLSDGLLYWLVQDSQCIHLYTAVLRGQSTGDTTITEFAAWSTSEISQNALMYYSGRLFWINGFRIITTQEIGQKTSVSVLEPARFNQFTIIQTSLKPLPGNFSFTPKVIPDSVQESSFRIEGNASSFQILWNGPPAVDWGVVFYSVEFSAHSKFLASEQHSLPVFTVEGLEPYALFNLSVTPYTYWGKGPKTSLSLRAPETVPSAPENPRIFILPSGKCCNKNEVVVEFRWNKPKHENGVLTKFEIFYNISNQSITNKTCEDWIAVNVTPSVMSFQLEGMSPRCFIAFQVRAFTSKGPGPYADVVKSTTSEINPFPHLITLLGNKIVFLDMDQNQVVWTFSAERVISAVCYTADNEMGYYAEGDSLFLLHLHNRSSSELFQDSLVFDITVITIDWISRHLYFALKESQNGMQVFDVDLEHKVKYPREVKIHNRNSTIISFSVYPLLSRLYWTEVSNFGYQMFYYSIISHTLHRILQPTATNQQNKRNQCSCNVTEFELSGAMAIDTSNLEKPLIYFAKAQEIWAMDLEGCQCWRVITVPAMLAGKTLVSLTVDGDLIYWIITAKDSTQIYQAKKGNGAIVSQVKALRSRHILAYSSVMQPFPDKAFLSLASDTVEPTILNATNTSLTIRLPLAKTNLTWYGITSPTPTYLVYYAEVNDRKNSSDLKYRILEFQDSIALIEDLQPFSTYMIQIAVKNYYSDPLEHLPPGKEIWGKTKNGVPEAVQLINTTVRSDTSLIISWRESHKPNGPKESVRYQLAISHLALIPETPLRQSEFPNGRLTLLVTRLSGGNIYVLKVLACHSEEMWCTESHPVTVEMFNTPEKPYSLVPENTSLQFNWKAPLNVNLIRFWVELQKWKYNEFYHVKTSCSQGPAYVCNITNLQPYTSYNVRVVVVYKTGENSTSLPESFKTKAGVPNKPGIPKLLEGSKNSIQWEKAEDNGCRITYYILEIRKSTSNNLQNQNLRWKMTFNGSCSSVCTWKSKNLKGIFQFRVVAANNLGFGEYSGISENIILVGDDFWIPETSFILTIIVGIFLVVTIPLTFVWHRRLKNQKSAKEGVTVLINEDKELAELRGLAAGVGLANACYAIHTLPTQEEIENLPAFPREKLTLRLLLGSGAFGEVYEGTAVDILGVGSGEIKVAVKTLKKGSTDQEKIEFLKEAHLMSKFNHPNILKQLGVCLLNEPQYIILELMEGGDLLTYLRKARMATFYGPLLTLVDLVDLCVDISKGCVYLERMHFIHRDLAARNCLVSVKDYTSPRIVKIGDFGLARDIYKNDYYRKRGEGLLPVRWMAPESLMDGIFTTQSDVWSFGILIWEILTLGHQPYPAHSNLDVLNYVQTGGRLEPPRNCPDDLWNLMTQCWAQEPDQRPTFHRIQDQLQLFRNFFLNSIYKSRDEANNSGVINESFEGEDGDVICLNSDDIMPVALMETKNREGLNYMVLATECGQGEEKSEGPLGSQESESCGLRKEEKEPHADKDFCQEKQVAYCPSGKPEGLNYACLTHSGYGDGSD

O=C1c2c(O)ccc(O)c2C(=O)c2c(NCCNCCO)ccc(NCCNCCO)c21 [Mitoxantrone, mitoxantrone]
ROS1 phosphorylation and downstream signaling molecules Erk1/2, STAT3 and AKT (western blot) [1]: dose-dependent decrease | IC50 [2]: 13.8 ± 2.49 nM | induction of apoptosis (flow cytometry) ([3]; 48 h, 5 nM, 10 nM and 20 nM, compared with the control group): induced significant apoptosis levels | concentration from which cells detached and became smaller (morphological indication of apoptosis) ([3]; FIG. 4): ≥ 10 nM | fold of IC50 in CCD19-Lu over IC50 on HCC78 [4]: at least 11.6 fold | IC50 ([4]; Homo sapiens, CCD 19Lu, CCD19-Lu normal lung cells): > 160 nM | IC50 [5]: 36 nM
